Legend:
Experiment in all cases: biochemical
BRAF = BRAF (Homo sapiens, UniProt P15056); set-up: SelectScreen LanthaScreen kinase binding assay, per cent tracer displacement, mean of two points; conditions: tracer displacement
CDK16 (PCTK1)/cyclin Y = CDK16 (PCTK1)/cyclin Y (Homo sapiens, UniProt Q00536); set-up: SelectScreen LanthaScreen kinase binding assay, per cent tracer displacement, mean of two points; conditions: tracer displacement
STK32C (YANK3) = STK32C (YANK3) (Homo sapiens, UniProt Q86UX6); set-up: SelectScreen LanthaScreen kinase binding assay, per cent tracer displacement, mean of two points; conditions: tracer displacement
PI3KC2β = biological target: T1, PI3KC2β (Homo sapiens, UniProt O00750); set-up: ADP-Glo lipid kinase assay with liver PI substrate, luminescence; conditions: read-out: PITCOIN3 (IC50)
T1 construct: gene PIK3C2B
T1 sequence (O00750 whole entry): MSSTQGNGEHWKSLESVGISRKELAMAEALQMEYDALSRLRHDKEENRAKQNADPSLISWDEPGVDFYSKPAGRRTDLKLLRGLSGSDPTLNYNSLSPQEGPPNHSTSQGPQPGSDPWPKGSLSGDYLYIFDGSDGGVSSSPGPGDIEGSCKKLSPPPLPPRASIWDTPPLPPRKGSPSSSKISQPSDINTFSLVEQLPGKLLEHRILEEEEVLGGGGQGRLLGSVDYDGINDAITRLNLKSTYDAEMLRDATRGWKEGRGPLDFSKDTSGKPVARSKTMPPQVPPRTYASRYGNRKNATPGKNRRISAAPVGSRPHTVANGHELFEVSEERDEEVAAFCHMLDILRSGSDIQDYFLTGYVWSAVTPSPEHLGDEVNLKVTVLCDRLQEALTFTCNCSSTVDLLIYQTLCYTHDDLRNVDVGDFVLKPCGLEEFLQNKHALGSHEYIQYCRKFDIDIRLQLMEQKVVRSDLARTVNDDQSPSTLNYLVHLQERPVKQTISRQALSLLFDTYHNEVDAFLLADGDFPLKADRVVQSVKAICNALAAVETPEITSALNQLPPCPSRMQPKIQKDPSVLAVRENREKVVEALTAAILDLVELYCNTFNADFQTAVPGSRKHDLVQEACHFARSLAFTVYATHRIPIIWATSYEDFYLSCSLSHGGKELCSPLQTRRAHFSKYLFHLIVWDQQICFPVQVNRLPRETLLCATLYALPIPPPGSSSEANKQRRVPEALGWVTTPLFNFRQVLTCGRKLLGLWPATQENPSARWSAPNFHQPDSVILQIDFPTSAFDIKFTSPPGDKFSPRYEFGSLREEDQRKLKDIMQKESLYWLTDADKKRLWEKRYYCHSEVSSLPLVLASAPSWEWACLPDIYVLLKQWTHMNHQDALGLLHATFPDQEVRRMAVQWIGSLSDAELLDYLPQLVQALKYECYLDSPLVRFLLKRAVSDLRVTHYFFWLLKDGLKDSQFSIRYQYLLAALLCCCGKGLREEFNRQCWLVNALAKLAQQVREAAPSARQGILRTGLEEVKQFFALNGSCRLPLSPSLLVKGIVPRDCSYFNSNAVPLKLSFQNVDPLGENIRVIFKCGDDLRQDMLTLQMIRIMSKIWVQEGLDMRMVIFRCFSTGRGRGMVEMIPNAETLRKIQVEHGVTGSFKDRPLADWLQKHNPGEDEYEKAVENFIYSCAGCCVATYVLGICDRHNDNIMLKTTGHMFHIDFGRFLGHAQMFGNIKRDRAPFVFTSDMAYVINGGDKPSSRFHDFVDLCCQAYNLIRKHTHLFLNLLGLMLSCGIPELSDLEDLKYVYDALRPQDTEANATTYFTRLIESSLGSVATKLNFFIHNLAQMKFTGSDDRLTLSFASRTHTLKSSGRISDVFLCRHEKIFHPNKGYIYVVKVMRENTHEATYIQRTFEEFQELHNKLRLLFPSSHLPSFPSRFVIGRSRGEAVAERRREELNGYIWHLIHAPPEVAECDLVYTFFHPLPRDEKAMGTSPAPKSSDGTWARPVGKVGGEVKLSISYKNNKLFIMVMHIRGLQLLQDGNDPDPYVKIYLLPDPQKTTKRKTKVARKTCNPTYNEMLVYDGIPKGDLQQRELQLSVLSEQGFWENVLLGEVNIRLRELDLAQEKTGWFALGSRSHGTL

Sequence of CDK16 (PCTK1)/cyclin Y (Q00536 whole entry): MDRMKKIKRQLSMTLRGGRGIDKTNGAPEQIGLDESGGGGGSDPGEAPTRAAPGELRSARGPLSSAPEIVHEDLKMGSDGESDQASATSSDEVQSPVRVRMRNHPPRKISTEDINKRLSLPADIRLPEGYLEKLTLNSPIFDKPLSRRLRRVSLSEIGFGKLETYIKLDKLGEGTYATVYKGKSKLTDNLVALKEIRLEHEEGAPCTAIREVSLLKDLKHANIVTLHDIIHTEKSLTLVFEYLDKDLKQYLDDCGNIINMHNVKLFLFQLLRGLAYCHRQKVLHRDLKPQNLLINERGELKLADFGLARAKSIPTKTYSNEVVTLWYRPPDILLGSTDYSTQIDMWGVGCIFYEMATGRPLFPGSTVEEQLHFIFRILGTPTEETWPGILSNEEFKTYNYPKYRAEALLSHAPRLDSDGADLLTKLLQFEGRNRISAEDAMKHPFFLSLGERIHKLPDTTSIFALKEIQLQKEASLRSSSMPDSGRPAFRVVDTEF
Sequence of CDK16 (PCTK1)/cyclin Y (Q8ND76 whole entry partner): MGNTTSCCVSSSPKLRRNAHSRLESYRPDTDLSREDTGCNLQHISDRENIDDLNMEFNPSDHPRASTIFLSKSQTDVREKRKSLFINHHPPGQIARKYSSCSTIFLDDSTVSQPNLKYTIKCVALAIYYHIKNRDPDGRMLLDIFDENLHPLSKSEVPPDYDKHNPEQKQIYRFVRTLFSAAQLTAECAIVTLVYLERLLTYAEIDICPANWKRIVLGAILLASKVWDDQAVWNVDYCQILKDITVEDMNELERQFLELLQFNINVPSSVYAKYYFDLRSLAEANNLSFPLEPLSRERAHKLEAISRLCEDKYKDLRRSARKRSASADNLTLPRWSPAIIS
Sequence of BRAF (P15056 whole entry): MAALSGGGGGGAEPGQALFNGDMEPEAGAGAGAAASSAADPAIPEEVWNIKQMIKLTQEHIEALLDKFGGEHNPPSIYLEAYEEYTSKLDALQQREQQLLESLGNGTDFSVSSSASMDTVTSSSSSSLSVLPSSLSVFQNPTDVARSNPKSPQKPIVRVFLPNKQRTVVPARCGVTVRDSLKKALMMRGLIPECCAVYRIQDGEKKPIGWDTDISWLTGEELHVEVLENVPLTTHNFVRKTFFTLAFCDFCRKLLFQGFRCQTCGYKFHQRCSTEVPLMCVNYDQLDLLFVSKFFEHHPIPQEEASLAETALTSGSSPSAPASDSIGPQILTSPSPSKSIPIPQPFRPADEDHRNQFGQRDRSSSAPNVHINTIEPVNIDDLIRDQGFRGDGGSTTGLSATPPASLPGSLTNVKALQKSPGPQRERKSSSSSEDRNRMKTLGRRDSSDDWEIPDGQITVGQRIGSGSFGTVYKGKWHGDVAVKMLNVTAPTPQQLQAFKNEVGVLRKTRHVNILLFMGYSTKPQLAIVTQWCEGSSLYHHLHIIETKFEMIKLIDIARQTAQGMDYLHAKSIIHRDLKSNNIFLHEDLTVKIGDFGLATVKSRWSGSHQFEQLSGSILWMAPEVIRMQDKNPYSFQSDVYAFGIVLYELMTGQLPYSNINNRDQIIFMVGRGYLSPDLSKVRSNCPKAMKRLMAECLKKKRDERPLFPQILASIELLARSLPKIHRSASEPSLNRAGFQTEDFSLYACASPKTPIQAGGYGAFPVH
Sequence of STK32C (YANK3) (Q86UX6 whole entry): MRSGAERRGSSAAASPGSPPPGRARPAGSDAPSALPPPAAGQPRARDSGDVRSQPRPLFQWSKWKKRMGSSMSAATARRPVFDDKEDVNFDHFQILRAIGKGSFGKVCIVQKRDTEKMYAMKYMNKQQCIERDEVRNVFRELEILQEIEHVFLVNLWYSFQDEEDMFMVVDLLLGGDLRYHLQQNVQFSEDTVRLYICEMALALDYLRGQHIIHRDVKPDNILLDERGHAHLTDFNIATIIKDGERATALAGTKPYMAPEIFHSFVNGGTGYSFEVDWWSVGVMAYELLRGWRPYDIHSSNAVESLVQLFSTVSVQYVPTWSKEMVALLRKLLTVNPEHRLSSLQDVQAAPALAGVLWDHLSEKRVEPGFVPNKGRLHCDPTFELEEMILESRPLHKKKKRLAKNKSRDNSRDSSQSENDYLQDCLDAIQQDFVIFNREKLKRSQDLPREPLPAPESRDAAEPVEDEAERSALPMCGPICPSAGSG

SMILES	inhibition at 1 µM (BRAF) [%]	inhibition at 3 µM (BRAF) [%]	inhibition at 10 µM (BRAF) [%]	inhibition at 1 µM (CDK16 (PCTK1)/cyclin Y) [%]	inhibition at 3 µM (CDK16 (PCTK1)/cyclin Y) [%]	inhibition at 10 µM (CDK16 (PCTK1)/cyclin Y) [%]	inhibition at 1 µM (STK32C (YANK3)) [%]	inhibition at 3 µM (STK32C (YANK3)) [%]	inhibition at 10 µM (STK32C (YANK3)) [%]	IC50 (PI3KC2β) [µM]
CS(=O)(=O)Nc1cccc(-c2csc(NC(=O)CSc3nc4nccnc4c(=O)n3CCc3ccccc3)n2)c1 [compound 3, PITCOIN3]	6.15	7.18	9.11	3.53	-5.28	-6.76	8.19	-2.39	-8.61	> 10
O=C(CSc1nc2nccnc2c(=O)n1CCc1ccccc1)Nc1nccs1 [compound 1, PITCOIN1]	-3.95	1.69	0.837	-6.54	-14.5	-1.48	-7	-1.98	-5.28	

Source: PMC7613998, “Development of selective inhibitors of phosphatidylinositol 3-kinase C2α” (Nature Chemical Biology, 2022)
